Reference: US11807852B2, “Compositions and methods for reactivating latent immunodeficiency virus” (The J. David Gladstone Institutes, a testamentary trust …, priority 2014, dated 2023)
“Also recorded” adds a separate entry of the source.

Experiments:
[1] = system: J-Lat cells (clone A2: LTR-Tat-IRES-GFP); assay type: cell-based
Experimental: To test this hypothesis, J-Lat cells (clone A2: LTR-Tat-IRES-GFP) were treated with SMYD2 inhibitors. […] Both cell lines were co-treated with X2 and Ingenol 3,20-dibenzoate (a protein kinase C (PKC) activator), JQ1 (BET-bromodomain inhibitor), or the histone deacetylase (HDAC) inhibitor suberoylanilidehydroxamic acid (SAHA).

[2] = system: latent HIV-1 in primary CD4+ T cells; experiment: Primary T-cell model of HIV latency (Greene model), NL4-3-Luc luciferase; assay type: cell-based
Experimental: Peripheral blood mononuclear cells (PBMC) were isolated by Ficoll-Hypaque density gradient centrifugation of buffy coats from HIV-seronegative donors (Blood Centers of the Pacific). PBMCs were immediately processed to isolate CD4^+ T cells. Total CD4^+ T cells were isolated by negative selection, according to manufacturer's protocol, with the EasySep CD4^+ T-cell Enrichment Kit (Stem Cell Technologies). Isolated CD4^+ T cells were cultured in RPMI as described above at a concentration of 1×10^6 cells/ml for 24 h before HIV infection.
CD4^+ T cells were counted, collected as pellets by centrifugation at 1500 rpm for 5 min at room temperature, and resuspended in the appropriate volume of concentrated viral NL4-3-Luc supernatant. Typically, 50-200 ng of p24Gag per 4×10^5 CD4^+ T cells were used. Spinoculations with NL4-3-Luc virus were performed in 96-well V-bottom plates with up to […] HLAC or CD4 T cells per well. All spinoculations were performed in volumes of 200 μl or less. Cells and virus were centrifuged at 2000 rpm for 1.5-2 h at room temperature. After spinoculation, cells were pooled and cultured at a concentration of 1×10^6 cells/ml in RPMI 1640 containing 10% FBS and supplemented with 5 μM saquinavir for 3 days to prevent residual spreading infection. Saquinavir was purchased from Sigma.
For reactivation of latent HIV-1 provirus, cells were counted and collected as pellets by centrifugation at 1500 rpm for 10 min. Cells were then plated in 96-well U-bottom plates at concentrations of 1×10^6/200 μl in the presence of the indicated activator. Unless otherwise indicated, cells were cultured either in medium alone or stimulated with 5 μg/ml phytohemagglutinin (PHA) (Sigma), 10 ng/ml TNF-α, anti-CD3+anti-CD28 beads at a ratio of 1:1. SAHA, JQ1 and X2 were tested at the indicated concentrations. Cells were harvested 48 hr after stimulation, washed one time with PBS, and lysed in 60 μl of Cell Lysis Buffer (Promega). After 15 min of lysis, the luciferase activity in cell extracts was quantified with a BD Monolight Luminometer after mixing 20 μl of lysate with 100 μl of substrate (Luciferase Assay System-Promega). Relative light units were normalized to protein content determined by BCA assay (Pierce). Cell survival rates were measured by flow cytometry immediately before lysis.
Since X2 activated HIV from latency in A2 and A72 cell lines, this compound was tested in a primary T-cell model of latency (Lassen, Greene). In this model, CD4+ T cells were infected in a single-round infection with HIV clone NL4-3-Luc to generate a latent infection in vitro. To reactivate latent HIV-1, cells were treated with the indicated compounds or a combination of PHA/IL-2 as a control for maximal activation. X2 in combination with JQ1 reactivated latent HIV-1 at 8-25% of the rate achieved by costimulation with PHA/IL-2 (FIG. 9). X2 in combination with Ingenol 3,20-dibenzoate reactivated latent HIV-1 at 30-85% of the rate achieved by costimulation with PHA/IL-2 (FIG. 10).

[3] = system: CD4+ T cells from HIV-1-infected individuals; experiment: T-cell activation markers CD69 and CD25, flow cytometry; assay type: cell-based, human; conditions: at the indicated concentrations (up to 500 nM)
Source text: FIGS. 15 A-G depict the structural formulae for AZ505, AZ506, and AZ391, and the reactivation of latent HIV-1 with SMYD2 inhibitor X2 (AZ391) in CD4^+ T cells from HIV-1 infected individuals. (A) Structures of each compound are shown. (B) Intracellular HIV-1 mRNA levels in CD4^+ T cells, obtained from an infected individual (#1036) and treated ex vivo with AZ391, JQ1 or a combination of both, in indicated concentrations, presented as fold induction relative to DMSO control. Activation with αCD3/αCD28-Dynabeads was performed as control. (C) Flow cytometry of T-cell activation markers CD69 and CD25 in the same experiment. For each treatment group, CD69^+ (left) and CD25^+ (right). Shown as percentage of positive cells relative to αCD3/αCD28-treated cells (D) Cell viability as measured by CellTiter-Blue® Cell Viability assay (Promega) and Zombie Violet Fixable Viability kit (BioLegend) and presented as percentage of DMSO control treated cells. Data points indicate average of three technical replicates of donor #1036. (E-G) Same experiments as in b-d but performed with CD4^+ T cells obtained from three additional individuals (2013, 2185, 2511) with a single concentration of AZ391 (500 nM). In f and g, average of the three biological replicates (±SD) is show. For (F), for each treatment group, CD69^+ (left) and CD25^+ (right). […]

SMILES: N#Cc1cc(C(=O)NCCCN2CCCC2)cc(-c2ccccc2N2CCN(CCc3c[nH]c4ccccc34)CC2)c1 [AZ391]
- GFP-expressing cells compared with control-treated cells ([1]; A2 J-Lat cells): up to threefold more GFP-expressing cells than control-treated cells
- activation of HIV transcription / reactivation of the HIV-LTR (GFP) ([1]; A2 J-Lat cells, single agent): activated HIV transcription in a dose-dependent manner
- cell death ([1]; at the concentration that effectively activated HIV transcription): slight increase in cell death
- reactivation of latent HIV-1 as % of the rate achieved by costimulation with PHA/IL-2 ([2]; in combination with Ingenol 3,20-dibenzoate): 30-85%
- reactivation of latent HIV-1 as % of the rate achieved by costimulation with PHA/IL-2 ([2]; in combination with JQ1): 8-25%
- reactivation of latent HIV-1, synergy ([2]; with JQ1): synergy
- reactivation of latent HIV-1, combination effect ([2]; with SAHA, listed as X2): modest activation; also recorded: minimal synergy
- reactivation of latent HIV-1, synergy ([2]; with ingenol 3,20-dibenzoate): synergy
- global T-cell activation (CD69, CD25) [3]: No increase in global T-cell activation
